Test results reported in patent US7955596B2 (priority 2003, dated 2011).
Where two headings read alike, the source gives them in different places.

How the values were obtained:
B. subtilis = settings: cited from earlier work
B. anthracis strain 34F2 [1] = type: cell-based
[2] = tested on: B. anthracis protective antigen (PA); type: cell-based
[3] = tested on: AI-2-mediated quorum-sensing; settings: cited from earlier work
[4] = tested on: AI-2-mediated quorum-sensing; settings: cited from earlier work; remark: listed apart in the source
[5] = tested on: B. anthracis strain RBAF140; type: cell-based
[6] = tested on: pag-lacZ (pagA protective antigen gene transcription); type: cell-based, B. anthracis
[7] = tested on: AI-1 and AI-2-mediated quorum-sensing pathways; settings: cited from earlier work
B. anthracis strain 34F2 [8] = type: cell-based; remark: listed apart in the source

| Structure (SMILES) | Biofilm formation (B. subtilis) | Swarming (B. subtilis) | B. anthracis growth (OD600) (B. anthracis strain 34F2 [1]) | Bacterial growth (OD600) (B. anthracis strain 34F2 [1]) | Bacterial growth (OD600) with increasing concentration (B. anthracis strain 34F2 [1]) | PA expression (Western blot) [2] | AI-2-mediated quorum-sensing [3] | AI-2-mediated quorum-sensing [4] | Growth of RBAF140 (OD600) [5] | Expression of pag-lacZ (β-gal activity) [6] | AI-1 and AI-2-mediated quorum-sensing pathways [7] | Bacterial growth (OD600) with increasing concentration, log phase cells (B. anthracis strain 34F2 [8]) | Inhibitory effect compared among furanones 1, 2 and 4 (B. anthracis strain 34F2 [1]) |
| --- | --- | --- | --- | --- | --- | --- | --- | --- | --- | --- | --- | --- | --- |
| CCCCC1=C(Br)/C(=C/Br)OC1=O [furanone 1, (5Z)-4-bromo-5-(bromomethylene)-3-butyl-2(5H)-furanone] | inhibit | inhibit | dramatically inhibited | completely inhibited | increasingly retarded | significant reduction | inhibit | inhibit | significant inhibition of growth | significantly reduced | directly inhibit | increasingly retarded | – |
| CCCCC1=CC(=C(Br)Br)OC1=O [furanone 2, 3-butyl-5-(dibromomethylene)-2-(5H)-furanone] | – | – | – | – | – | – | – | – | – | – | – | – | least |
| O=C1C=C(Br)/C(=C/Br)O1 [furanone 4, 4-bromo-5-(bromomethylene)-2(5H)-furanone] | – | – | – | – | – | – | – | – | – | – | – | – | most potent inhibitory effect |
